Results from paper PMC6394990, “Detailed characterization of the solution kinetics and thermodynamics of biotin, biocytin and HABA binding to avidin and streptavidin” (PLoS ONE, 2019).
“And” between values parts separate entries of the source, which are not always exact repeats. Equal values may be shown once. Read-outs that look alike come from different tables or passages of the source.

Target: T1, avidin (AV) (Gallus gallus, UniProt P02701)
T1 construct: purchased Calbiochem (La Jolla, CA)
Assay: Stopped-flow association kinetics of dye-labeled biotin probes binding to avidin (F(t), rF(t); Arrhenius plots/global fitting)
Set-up: ln(k) / dS+ / dG+ / Eon for BFl / b of the line y = m1x+b1: unit not given here
Details: for k(average): k (full value); for ΔG^ǂ / ΔS^ǂ: forward; for kcal/mol (from Arrhenius slope): the values are: Ea forward; for Temperature at which the rate constants of AV and SAV reacting with BcO are the same, x: crossing of the AV and SAV lines; for half-time of association, rF¯(t) / halftime of association, rF¯(t): probe 20 nM; for half-time of association, rF¯(t): AV 260 nM
Description: These reactions were carried out in a buffered solution of 10 mM Tris-HCl, 100 mM KCl, 2.5 mM MgCl2 and 1 mM CaCl2 at pH 8 and only AV-BcO reactions included pH 9 and 10. The concentrations, after mixing, were of 20 nM of dye-labeled B7 probe and 260 nM, 520 nM or 1040 nM of AV; and 200 nM, 300 nM, 400 nM or 800 nM of SAV at temperatures of 10, 15, 20 and 25°C. The deglycosylation of AV (for comparative association reactions) was carried out using the provided standard protocol with endoglycosidase H [47], both with and without incubation of a denaturant solution (2% SDS and 1M 2-mercaptoethanol).
The reactions were collected with the SF instrument, described previously. The fluorescence signal was collected through a 520 nm interference filter (Oriel Corp., Stratford, CT) with a detector time constant and SF dead time of 1 μs and 1 ms, respectively. The excitation light was provided by the Coherent Ar^+ ion laser (described above) at 488 nm with […] of incident power on the reaction cuvette. The laser source was followed by the photo-elastic modulator described above with the axis oriented 45^o with respect to the electric vector of the incident light and with the half-wave modulation (50 kHz) set for 488 nm excitation. The demodulation circuitry following the photomultiplier provided a DC(t) and a rectified AC(t) which were converted to digital data by a high-speed digitizer (PCI-5122) from National Instruments (Austin, TX) with 14-bit resolution and 100 MHz bandwidth, through channels 0 and 1. The data acquisition was controlled by LabVIEW (Vr 8) software at a collection rate of 6120 data points/second and stored in spreadsheets. The AC(t) and DC(t) data were baseline corrected before obtaining the signal ratio (Eq 4) as a function of time (ρt).
The constant AGain is the instrumental amplitude gain and was evaluated by solving ρ(t) using the known steady state anisotropy (rss) of the complexes which is equivalent to the r(t) at t = ∞; and H, obtained from the equivalent grating factor (G) for the filters and photo multiplier tubes in the SF. For the probes used in here G was 0.82 and H = (1-G)/(1+G) = 0.099. Knowing Again and H, the AC(t) and DC(t) signals can be solved for r(t) and F(t) (Eqs 4 and 5) and the normalized fluorescence, F¯(t) , and corrected fluorescence anisotropy, rF¯(t), were obtained when F¯(0) and rF¯(0) were scaled to 1 at t = 0.
The F¯(t) (Eq 6) is equivalent to (I||) + 2 (I⊥) and proportional to quantum yield (QYi), molar absorptivity (εi) and to the formation or disappearance of the emitting species Xi(t); and rF¯(t) including the steady state anisotropies (rss) of each fluorescent species (Eq 7).
The possible reaction models were discriminated by the squared residuals of the observed and calculated association traces of both fluorescence and anisotropy fluorescence signals, F¯(t) and rF¯(t) , respectively.

T1 sequence (P02701 25-152): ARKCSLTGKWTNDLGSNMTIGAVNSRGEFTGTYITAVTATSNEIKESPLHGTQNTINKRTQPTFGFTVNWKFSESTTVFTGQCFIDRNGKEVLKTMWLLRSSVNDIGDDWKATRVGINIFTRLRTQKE

SMILES: NC(CCCCNC(=O)CCCC[C@@H]1SC[C@@H]2NC(=O)N[C@@H]21)C(=O)NCCCCCNC(=O)c1ccc(-c2c3cc(F)c(=O)cc-3oc3cc(O)c(F)cc23)c(C(=O)O)c1 (stereo partly drawn) [BcO, Oregon green 488 Biocytin]
- kon (AV, pH 9, 15 (288.15 K), k (scaled)): 3.4e+06 M⁻¹ s⁻¹
- ln(k) (AV, pH 9, 20 (293.15 K)): 15.5
- k(average) (AV, pH 9, 20 (293.15 K)): 5.37E+06
- kon (AV, pH 9, 20 (293.15 K), k (scaled)): 5.4e+06 M⁻¹ s⁻¹
- ln(k) (AV, pH 9, 25 (298.15 K)): 15.9
- k(average) (AV, pH 9, 25 (298.15 K)): 7.85E+06
- kon (AV, pH 9, 25 (298.15 K), k (scaled)): 7.9e+06 M⁻¹ s⁻¹
- ΔG^ǂ (AV, pH 9): 4.7 ± 0.1 kcal/mol
- ΔS^ǂ (AV, pH 9): 30.9 ± 2.5 cal/°K·mol
- Ea^Forward (AV, pH 10): 14.9 ± 0.7 kcal/mol
- ln(k) (AV, pH10, 10 (283.15 K)): 14.5
- k(average) (AV, pH10, 10 (283.15 K)): 1.93E+06
- kon (AV, pH10, 10 (283.15 K), k (scaled)): 1.9e+06 M⁻¹ s⁻¹
- ln(k) (AV, pH10, 15 (288.15 K)): 14.9
- k(average) (AV, pH10, 15 (288.15 K)): 2.97E+06
- kon (AV, pH10, 15 (288.15 K), k (scaled)): 3e+06 M⁻¹ s⁻¹
- ln(k) (AV, pH10, 20 (293.15 K)): 15.4
- k(average) (AV, pH10, 20 (293.15 K)): 4.75E+06
- kon (AV, pH10, 20 (293.15 K), k (scaled)): 4.7e+06 M⁻¹ s⁻¹
- ln(k) (AV, pH10, 25 (298.15 K)): 15.8
- k(average) (AV, pH10, 25 (298.15 K)): 7.23E+06
- kon (AV, pH10, 25 (298.15 K), k (scaled)): 7.2e+06 M⁻¹ s⁻¹
- ΔG^ǂ (AV, pH 10): 4.7 ± 0.3 kcal/mol
- ΔS^ǂ (AV, pH 10): 34.1 ± 1.3 cal/°K·mol
- slope (Arrhenius linear fit) (AV, ph8): -7283
- slope (Arrhenius linear fit) (AV, ph9): -6979.6
- kcal/mol (from Arrhenius slope) (AV, ph9): 13.9 kcal/mol
- slope (Arrhenius linear fit) (AV, ph10): -7486
- kcal/mol (from Arrhenius slope) (AV, ph10): 14.9 kcal/mol
- Temperature at which the rate constants of AV and SAV reacting with BcO are the same, x: 52.1 °C
- Temperature at which the rate constants of AV and SAV reacting with BcO are the same, x (x=(b1-b2)/(m2-m1) inverted): 325.2 °K
- kon (pH 8, AV 260 nM, 10°C, pH 8, read-out: kon AV-BcO F¯(t)): 2.4e+06 ± 100000 M⁻¹ s⁻¹
- kon (pH 8, AV 260 nM, 10°C, pH 8, read-out: kon AV-BcO r¯F(t)): 2.7e+06 ± 100000 M⁻¹ s⁻¹
- kon (pH 8, AV 260 nM, 15°C, pH 8, read-out: kon AV-BcO F¯(t)): 4.1e+06 ± 100000 M⁻¹ s⁻¹
- kon (pH 8, AV 260 nM, 15°C, pH 8, read-out: kon AV-BcO r¯F(t)): 4e+06 ± 100000 M⁻¹ s⁻¹
- kon (pH 8, AV 260 nM, 20°C, pH 8, read-out: kon AV-BcO F¯(t)): 5.7e+06 ± 100000 M⁻¹ s⁻¹
- kon (pH 8, AV 260 nM, 20°C, pH 8, read-out: kon AV-BcO r¯F(t)): 5.9e+06 ± 100000 M⁻¹ s⁻¹
- kon (pH 8, AV 260 nM, 25°C, pH 8, read-out: kon AV-BcO F¯(t)): 9.5e+06 ± 100000 M⁻¹ s⁻¹
- kon (pH 8, AV 260 nM, 25°C, pH 8, read-out: kon AV-BcO r¯F(t)): 9.5e+06 ± 100000 M⁻¹ s⁻¹
- kon (pH 8, AV 520 nM, 10°C, pH 8, read-out: kon AV-BcO F¯(t)): 2.6e+06 ± 200000 M⁻¹ s⁻¹
- kon (pH 8, AV 520 nM, 10°C, pH 8, read-out: kon AV-BcO r¯F(t)): 2.7e+06 ± 100000 M⁻¹ s⁻¹
- kon (pH 8, AV 520 nM, 15°C, pH 8, read-out: kon AV-BcO F¯(t)): 4e+06 ± 100000 M⁻¹ s⁻¹
- kon (pH 8, AV 520 nM, 15°C, pH 8, read-out: kon AV-BcO r¯F(t)): 3.8e+06 ± 100000 M⁻¹ s⁻¹
- kon (pH 8, AV 520 nM, 20°C, pH 8, read-out: kon AV-BcO F¯(t)): 5.9e+06 ± 300000 M⁻¹ s⁻¹
- kon (pH 8, AV 520 nM, 20°C, pH 8, read-out: kon AV-BcO r¯F(t)): 5.8e+06 ± 100000 M⁻¹ s⁻¹
- kon (pH 8, AV 520 nM, 25°C, pH 8, read-out: kon AV-BcO F¯(t)): 9.5e+06 ± 300000 M⁻¹ s⁻¹
- kon (pH 8, AV 520 nM, 25°C, pH 8, read-out: kon AV-BcO r¯F(t)): 9.5e+06 ± 100000 M⁻¹ s⁻¹
- kon (pH 8, AV 1040 nM, 10°C, pH 8, read-out: kon AV-BcO F¯(t)): 2.5e+06 ± 200000 M⁻¹ s⁻¹
- kon (pH 8, AV 1040 nM, 10°C, pH 8, read-out: kon AV-BcO r¯F(t)): 2.7e+06 ± 100000 M⁻¹ s⁻¹
- kon (pH 8, AV 1040 nM, 15°C, pH 8, read-out: kon AV-BcO F¯(t)): 3.9e+06 ± 200000 M⁻¹ s⁻¹
- kon (pH 8, AV 1040 nM, 15°C, pH 8, read-out: kon AV-BcO r¯F(t)): 4e+06 ± 200000 M⁻¹ s⁻¹
- kon (pH 8, AV 1040 nM, 20°C, pH 8, read-out: kon AV-BcO F¯(t)): 6e+06 ± 100000 M⁻¹ s⁻¹
- kon (pH 8, AV 1040 nM, 20°C, pH 8, read-out: kon AV-BcO r¯F(t)): 6.1e+06 ± 100000 M⁻¹ s⁻¹
- kon (pH 8, AV 1040 nM, 25°C, pH 8, read-out: kon AV-BcO F¯(t)): 9.7e+06 ± 300000 M⁻¹ s⁻¹
- kon (pH 8, AV 1040 nM, 25°C, pH 8, read-out: kon AV-BcO r¯F(t)): 9.4e+06 ± 200000 M⁻¹ s⁻¹
- kon (pH 8, AV, Arrhenius plot, 23°C and pH 8, read-out: kon): 7.8e+06 ± 4e+11 M⁻¹ s⁻¹
- kon (pH 8, AV, pH 8, 10°C, read-out: kon): 2.6e+06 ± 300000 M⁻¹ s⁻¹
- kon (pH 8, AV, pH 8, 15°C, read-out: kon): 3.9e+06 ± 300000 M⁻¹ s⁻¹
- kon (pH 8, AV, pH 8, 20°C, read-out: kon): 5.9e+06 ± 400000 M⁻¹ s⁻¹
- kon (pH 8, AV, pH 8, 25°C, read-out: kon): 9.5e+06 ± 400000 M⁻¹ s⁻¹
- kon (pH 9, AV, pH 9, 10°C, read-out: kon): 2.3e+06 ± 100000 M⁻¹ s⁻¹
- kon (pH 9, AV, pH 9, 15°C, read-out: kon): 3.4e+06 ± 100000 M⁻¹ s⁻¹
- kon (pH 9, AV, pH 9, 20°C, read-out: kon): 5.4e+06 ± 200000 M⁻¹ s⁻¹
- kon (pH 9, AV, pH 9, 25°C, calculated from an Arrhenius plot, read-out: kon): 7.9e+06 ± 300000 M⁻¹ s⁻¹
- kon (pH 10, AV, pH 10, 10°C, read-out: kon): 1.9e+06 ± 100000 M⁻¹ s⁻¹
- kon (pH 10, AV, pH 10, 15°C, read-out: kon): 3e+06 ± 100000 M⁻¹ s⁻¹
- kon (pH 10, AV, pH 10, 20°C, read-out: kon): 4.8e+06 ± 200000 M⁻¹ s⁻¹
- kon (pH 10, AV, pH 10, 25°C, calculated from an Arrhenius plot, read-out: kon): 7.2e+06 ± 300000 M⁻¹ s⁻¹
- half-time of association, rF¯(t) (pH 8, 10°C): 1024 ms
- half-time of association, rF¯(t) (pH 8, 15°C): 695 ms
- half-time of association, rF¯(t) (pH 8, 20°C): 452 ms and 455 ms
- half-time of association, rF¯(t) (pH 8, 25°C): 280 ms
- halftime of association, rF¯(t) (AV 520 nM, pH 8, 20°C): 229 ms
- halftime of association, rF¯(t) (AV 1040 nM, pH 8, 20°C): 109 ms
- kon (untreated AV, 15°C, read-out: kon): 3.9e+06 M⁻¹ s⁻¹
